According to article PMC5378956, “Inhibition of delta-secretase improves cognitive functions in mouse models of Alzheimer's disease” (Nature Communications, 2017):
Blank lines part the entries; values can stand above or below the compound they belong to.

How the values were obtained:
[1] = target: T1, caspase-8 (Homo sapiens, UniProt Q14790); test: IC50 assay with recombinant caspase-8; assay type: biochemical; conditions: for IC50: mean±s.d.
T1 construct: purchased Millipore (Billerica, MA)
Description: Caspase-3 and 8 – The enzyme was pre-incubated with inhibitor in assay buffer (100 mM HEPES pH 7.4, 0.1% CHAPS, 10% Sucrose) for 10 min at 37 °C.
(§1) To determine the IC50 values of the compounds towards δ-secretase, cathepsin-S, cathepsin-L, caspase-3 and caspase-8, purified recombinant enzyme was incubated in appropriate assay buffers in the presence of increasing concentrations of inhibitors. The formation of fluorescent product was monitored in duplicate reactions and the data were fit to appropriate equations to calculate the IC50 values.

[2] = Liver microsomal stability, human; conditions: Human microsomes, 30 min, 37 °C
Description: Supplementary Table 4: Liver microsomal stability
Compound Species Mean Remaining Parent Mean Remaining Parent
(with NADPH) (NADPH-free)
The test agents were incubated in duplicate with microsomes at 37 °C for 30 min. The reaction contained microsomal protein in 100 mM potassium phosphate, 2 mM NADPH, 3 mM MgCl2, pH 7.4. A control was run for each test agent omitting NADPH to detect NADPH-free degradation. Data are reported as % remaining of parent compound. ND, Peak not detected due to bioanalysis issue (poor ionization).

[3] = Serum and brain level after chronic oral dosing; conditions: tau P301S, mouse, in vivo, oral 10 mg kg-1d-1, 3 months, 1 hour after last dose
[4] = tested on: Caco-2 monolayer; test: Caco-2 monolayer permeability screen
Description: Supplementary Table 3: Caco-2 permeability and BBB-PAMPA permeability
For CaCo-2 permeability assay, cells were incubated with 10 µM of these reagents in
buffers for 2 h, and the receiver side buffer is removed for analysis by LC/MS/MS. Efflux […]
LLOQ: Lower Limit of Quantification; Papp: apparent permeability.

[5] = target: T2, cathepsin-S (Homo sapiens, UniProt P25774); test: IC50 assay with recombinant cathepsin-S; assay type: biochemical; conditions: mean±s.d.
T2 construct: purchased Athens Research and Technology (Athens, GA)
T2 sequence (P25774 115-331, species assumed): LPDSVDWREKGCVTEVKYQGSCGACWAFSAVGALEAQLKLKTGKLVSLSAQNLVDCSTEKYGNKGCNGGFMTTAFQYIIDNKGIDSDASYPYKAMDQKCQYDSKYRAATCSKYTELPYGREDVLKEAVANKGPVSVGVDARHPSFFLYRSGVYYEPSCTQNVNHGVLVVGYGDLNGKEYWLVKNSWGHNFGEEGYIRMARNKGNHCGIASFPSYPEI
Description: Cathepsin-S – 100 nM enzyme was pre-incubated with inhibitor in assay buffer (100 mM NaH2PO4 pH 6.5, 100 mM NaCl) for 10 min at 37 °C. The reaction was initiated on addition of 25 μM substrate (Boc-Val-Leu-Lys-AMC (Bachem).
as §1

[6] = Single-dose pharmacokinetics, IV and oral; conditions: for serum concentration: all three animals
Description: Two months old CD-1 male mice were orally
serum was collected at indicated time points with each group of 3 mice (mean ± s.d.).

[7] = target: CYP3A4 (Homo sapiens, UniProt P08684); test: CYP inhibition screening in microsomes; conditions: pH 7.4, probe midazolam
CYP3A4, sequence (P08684 whole entry): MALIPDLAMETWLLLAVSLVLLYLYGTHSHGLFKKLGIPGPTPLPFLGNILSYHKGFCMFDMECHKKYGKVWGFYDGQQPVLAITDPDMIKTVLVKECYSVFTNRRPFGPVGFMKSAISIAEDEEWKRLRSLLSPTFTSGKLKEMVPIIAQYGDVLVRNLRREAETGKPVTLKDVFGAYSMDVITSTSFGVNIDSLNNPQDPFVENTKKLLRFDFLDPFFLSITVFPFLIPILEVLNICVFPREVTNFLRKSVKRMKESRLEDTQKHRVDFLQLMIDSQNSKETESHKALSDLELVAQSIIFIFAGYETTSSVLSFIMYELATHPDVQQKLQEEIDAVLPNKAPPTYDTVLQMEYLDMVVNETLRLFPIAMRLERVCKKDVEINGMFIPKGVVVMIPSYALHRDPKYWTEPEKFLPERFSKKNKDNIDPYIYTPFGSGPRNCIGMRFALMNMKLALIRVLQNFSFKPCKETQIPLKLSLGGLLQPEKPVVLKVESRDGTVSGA

[8] = target: T3, δ-secretase in Pala cells (Homo sapiens, UniProt Q99538); test: δ-secretase inhibition in intact Pala cells
T3 sequence (Q99538 18-433): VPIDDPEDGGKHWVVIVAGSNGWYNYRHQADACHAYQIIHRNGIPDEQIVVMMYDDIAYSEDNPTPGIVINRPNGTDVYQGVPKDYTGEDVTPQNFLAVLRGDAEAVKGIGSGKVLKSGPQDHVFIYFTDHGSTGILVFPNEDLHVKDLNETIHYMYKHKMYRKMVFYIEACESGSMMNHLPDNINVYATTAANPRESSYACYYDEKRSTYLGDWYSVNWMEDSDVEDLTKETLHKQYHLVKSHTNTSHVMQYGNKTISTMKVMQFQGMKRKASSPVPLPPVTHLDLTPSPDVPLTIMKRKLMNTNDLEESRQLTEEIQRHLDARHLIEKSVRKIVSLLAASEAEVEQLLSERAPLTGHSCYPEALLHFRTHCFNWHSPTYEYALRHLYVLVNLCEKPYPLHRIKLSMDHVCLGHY
Description: Cells were collected, washed twice with PBS and lysed in Lysis Buffer (20 mM citric acid, 60 mM disodium hydrogen orthophosphate, 1 mM EDTA, 0.1% CHAPS, pH 5.8). […] Data were analysed with GraFit version 5.0.11 software package.
δ-secretaseactivity assay.

[9] = male, CD-1, mouse, in vivo, iv, 2 mg kg-1
[10] = male, CD-1, mouse, in vivo, po, 10 mg kg-1
[11] = male, CD-1, mouse, serum, iv, 2 mg/kg
[12] = male, CD-1, mouse, serum, po, 10 mg/kg

T1 sequence (Q14790 217-374 limits assumed, species assumed): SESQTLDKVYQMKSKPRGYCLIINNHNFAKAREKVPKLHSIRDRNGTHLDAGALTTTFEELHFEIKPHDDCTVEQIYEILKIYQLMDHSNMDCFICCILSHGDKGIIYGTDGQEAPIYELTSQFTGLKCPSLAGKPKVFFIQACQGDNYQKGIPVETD
T1 sequence (Q14790 385-479 limits assumed, species assumed): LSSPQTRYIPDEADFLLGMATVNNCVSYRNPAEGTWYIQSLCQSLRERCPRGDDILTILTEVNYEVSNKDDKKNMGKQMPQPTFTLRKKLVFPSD

SMILES: Nc1ccc(N2CCOCC2)c2nonc12 [compound 11, 7-(morpholin-4-yl)-2,1,3-benzoxadiazol-4-amine]
IC50 [1]: 86.7 ± 10.3 µM
Mean Remaining Parent (NADPH-free) [2]: 93%
Mean Remaining Parent (with NADPH) [2]: 76%
concentration at 1 h ([3]; 10 mg kg-1d-1, Compound #11 in the serum, Sample #1): 184 ng/mL
concentration at 1 h ([3]; 10 mg kg-1d-1, Compound #11 in the serum, Sample #2): 59 ng/mL
concentration at 1 h ([3]; 10 mg kg-1d-1, Concentration in the brain, Sample #1): 206 ng/g
concentration at 1 h ([3]; 10 mg kg-1d-1, Concentration in the brain, Sample #2): 87 ng/g
Caco-2 permeability in words [4]: highly permeable
IC50 [5]: > 200 µM
serum concentration ([6]; IV 2 mg kg-1, 8.00 h): BLQ
serum concentration ([6]; IV 2 mg kg-1, 24.00 h): BLQ
concentration at 0.08 h [6, 9]: 230 ng/mL
concentration at 0.5 h [6, 9]: 13.3 ng/mL
concentration at 1 h [6, 9]: 3.5 ng/mL
concentration at 2 h [6, 9]: 3.8 ng/mL
concentration at 4 h [6, 9]: 3.1 ng/mL
concentration at 0.5 h [6, 10]: 81.1 ng/mL
concentration at 1 h [6, 10]: 27.2 ng/mL
concentration at 2 h [6, 10]: 13.3 ng/mL
concentration at 4 h [6, 10]: 11.6 ng/mL
concentration at 8 h [6, 10]: 3.8 ng/mL
AUC(0-inf) [6, 11]: 61.2 ng·h/mL
AUC(0-t) [6, 11]: 61.1 ng·h/mL
Cmax [6, 11]: 230 ng/mL
MRT last [6, 11]: 18 min
Vd [6, 11]: 10.8 L/kg
clearance [6, 11]: 554 mL/min/kg
half-life [6, 11]: 13.2 min
bioavailability ([6]; male, CD-1, mouse, serum, oral, 10 mg kg-1, F (oral bioavailability), mean, oral 10 mg kg-1 vs IV 2 mg kg-1): 69%
AUC(0-inf) [6, 12]: 223 ng·h/mL
AUC(0-t) [6, 12]: 211 ng·h/mL
CL/F [6, 12]: 824 mL/min/kg
Cmax [6, 12]: 447 ng/mL
MRT last [6, 12]: 69 min
Tmax [6, 12]: 15 min
Vd/F [6, 12]: 134 L/kg
half-life [6, 12]: 139 min
serum concentration ([6]; oral 10 mg kg-1, 24.00 h): BLQ
F (oral bioavailability), mean ([6]; oral 10 mg kg-1 vs IV 2 mg kg-1): ~70%
inhibition at 10 min, 3 µM [7]: 3.6%
inhibition at 10 min, 10 µM [7]: 8%

IC50 [1]: > 200 µM
IC50 [8]: 0.43 ± 0.21 µM
Mean Remaining Parent (NADPH-free) [2]: 1%
Mean Remaining Parent (with NADPH) [2]: 1%
IC50 [5]: > 200 µM
inhibition at 10 min, 3 µM [7]: -2.5%
inhibition at 10 min, 10 µM [7]: -2.5%
SMILES: Cc1cccc(NCc2ccc(O)c3ncccc23)c1C [compound 12]

IC50 [1]: > 100 µM
IC50 [8]: 0.67 ± 0.4 µM
Mean Remaining Parent (NADPH-free) [2]: 75%
Mean Remaining Parent (with NADPH) [2]: 12%
Caco-2 permeability in words [4]: highly permeable
IC50 [5]: > 100 µM
inhibition at 10 min, 3 µM [7]: -0.9%
inhibition at 10 min, 10 µM [7]: 18.1%
SMILES: COc1ccc(N2CCN(C(c3ccc(N(C)C)cc3)c3nnnn3C(C)(C)C)CC2)cc1 (stereo not shown) [compound 31]

selectivity for δ-secretase compared to caspase-8 [1]: at least 80 fold
IC50 [1]: 76.1 ± 8.12 µM
IC50 [8]: 0.11 ± 0.05 µM
Mean Remaining Parent (NADPH-free) [2]: 107%
Mean Remaining Parent (with NADPH) [2]: 88%
IC50 [5]: > 200 µM
inhibition at 10 min, 3 µM [7]: 7.3%
inhibition at 10 min, 10 µM [7]: 10.4%
SMILES: Cn1c(=O)[nH]c(=O)c2c1nc(S)n2CC(O)COc1ccc(Cl)cc1 (stereo not shown) [compound 38]
